From ChEMBL document CHEMBL3046756, “Synthesis, anti-inflammatory, and structure antioxidant activity relationship of novel 4-quinazoline” (Med Chem Res, 2013)
Activity calls are given as the source filed them. The rule behind the calls is not given here.

Assays:
Rattus norvegicus [1] = experiment: Anti-inflammatory activity in Wistar Rattus norvegicus (rat) assessed as inhibition of carrageenan-induced paw edema at 50 mg/kg, po administered 30 min prior to carrageenan challenge measured at 90 min relative to untreated control; assay type: functional
Rattus norvegicus [2] = experiment: Effect on glutathione reductase level in Wistar Rattus norvegicus (rat) liver measured NADPH oxidized per min per mg of protein at 100 mg/kg, po after 10 days (reference value: 4.19 +/ 0.42 nmol); assay type: functional
[3] = Antioxidant activity assessed as reduction of Fe3+ to Fe2+ at 20 to 120 ug/ml after 30 min by spectrophotometric analysis; assay type: functional
Rattus norvegicus [4] = experiment: Effect on gamma-glutamyl transferase level in Wistar Rattus norvegicus (rat) serum at 150 mg/kg, po qd after 10 days (reference value: 0.57 +/- 0.04 U/I); assay type: functional
Rattus norvegicus [5] = experiment: Anti-inflammatory activity in Wistar Rattus norvegicus (rat) assessed as inhibition of carrageenan-induced paw edema at 150 mg/kg, po administered 30 min prior to carrageenan challenge measured at 90 min relative to untreated control; assay type: functional
Rattus norvegicus [6] = experiment: Anti-inflammatory activity in Wistar Rattus norvegicus (rat) assessed as inhibition of carrageenan-induced paw edema at 150 mg/kg, po administered 30 min prior to carrageenan challenge measured at 30 min post carrageenan challenge relative to untreated control; assay type: functional
Rattus norvegicus [7] = experiment: Effect on GSH level in Wistar Rattus norvegicus (rat) liver measured per mg of protein at 150 mg/kg, po after 10 days (reference value: 1.84 +/- 0.092 mg); assay type: functional
Mus musculus [8] = experiment: Toxicity in albino Mus musculus (mouse) assessed as change in temperature at extremities at 150 to 900 mg/kg, ip measured within 24 hr; assay type: organism-based; set-up: dose 150-900 mg/kg, route intraperitoneal; conditions: in vivo
Rattus norvegicus [9] = experiment: Antipyretic activity in Wistar Rattus norvegicus (rat) assessed as decrease in Brewer's yeast solution-induced hyperthermia at 150 mg/kg, po measured after 1 hr (reference value: 37 +/- 3.55 degC); assay type: functional
Rattus norvegicus [10] = experiment: Effect on LDH level in Wistar Rattus norvegicus (rat) serum at 100 mg/kg, po qd after 10 days (reference value: 249.89 +/- 13.26 U/I); assay type: functional
[11] = Toxicity in ip dosed albino Mus musculus (mouse) assessed as mortality measured within 24 hr; assay type: organism-based; conditions: in vivo
Rattus norvegicus [12] = experiment: Antipyretic activity in Wistar Rattus norvegicus (rat) assessed as decrease in Brewer's yeast solution-induced hyperthermia at 50 mg/kg, po measured after 3 hr (reference value: 36.8 +/- 1.9 degC); assay type: functional
Mus musculus [13] = experiment: Toxicity in albino Mus musculus (mouse) assessed as change in toes color at 150 to 900 mg/kg, ip measured within 24 hr; assay type: organism-based; set-up: dose 150-900 mg/kg, route intraperitoneal; conditions: in vivo
Mus musculus [14] = experiment: Toxicity in albino Mus musculus (mouse) assessed as increase in heart rate at 150 to 900 mg/kg, ip measured within 1 to 2 hr; assay type: organism-based; set-up: route intraperitoneal; conditions: in vivo
Rattus norvegicus [15] = experiment: Effect on glutathione peroxidase level in Wistar Rattus norvegicus (rat) liver measured GSH oxidized per min per mg of protein at 150 mg/kg, po after 10 days (reference value: 47.47 +/- 3.86 mmol); assay type: functional
Mus musculus [16] = experiment: Toxicity in albino Mus musculus (mouse) assessed as tremor in hind limbs at 150 to 900 mg/kg, ip measured within 24 hr; assay type: organism-based, Hindlimb; set-up: dose 150-900 mg/kg, route intraperitoneal; conditions: in vivo
Rattus norvegicus [17] = experiment: Antipyretic activity in Wistar Rattus norvegicus (rat) assessed as decrease in Brewer's yeast solution-induced hyperthermia at 150 mg/kg, po measured after 2 hr (reference value: 37 +/- 1.7 degC); assay type: functional
Rattus norvegicus [18] = experiment: Effect on GSH level in Wistar Rattus norvegicus (rat) liver measured per mg of protein at 50 mg/kg, po after 10 days (reference value: 1.84 +/- 0.092 mg); assay type: functional
Rattus norvegicus [19] = experiment: Effect on gamma-glutamyl transferase level in Wistar Rattus norvegicus (rat) serum at 100 mg/kg, po qd after 10 days (reference value: 0.57 +/- 0.04 U/I); assay type: functional
Rattus norvegicus [20] = experiment: Effect on SGOT level in Wistar Rattus norvegicus (rat) at 150 mg/kg, po qd after 10 days (reference value: 145.50 +/- 13.86 U/I); assay type: functional
Rattus norvegicus [21] = experiment: Anti-inflammatory activity in Wistar Rattus norvegicus (rat) assessed as inhibition of carrageenan-induced paw edema at 150 mg/kg, po administered 30 min prior to carrageenan challenge measured at 180 min relative to untreated control; assay type: functional
Rattus norvegicus [22] = experiment: Anti-inflammatory activity in Wistar Rattus norvegicus (rat) assessed as inhibition of carrageenan-induced paw edema at 50 mg/kg, po administered 30 min prior to carrageenan challenge measured at 30 min post carrageenan challenge relative to untreated control; assay type: functional
Rattus norvegicus [23] = experiment: Effect on LDH level in Wistar Rattus norvegicus (rat) serum at 50 mg/kg, po qd after 10 days (reference value: 249.89 +/- 13.26 U/I); assay type: functional
Rattus norvegicus [24] = experiment: Antipyretic activity in Wistar Rattus norvegicus (rat) assessed as decrease in Brewer's yeast solution-induced hyperthermia at 50 mg/kg, po measured after 2 hr (reference value: 37 +/- 1.7 degC); assay type: functional
Rattus norvegicus [25] = experiment: Anti-inflammatory activity in Wistar Rattus norvegicus (rat) assessed as inhibition of carrageenan-induced paw edema at 50 mg/kg, po administered 30 min prior to carrageenan challenge measured at 60 min relative to untreated control; assay type: functional
Rattus norvegicus [26] = experiment: Effect on ALP level in Wistar Rattus norvegicus (rat) serum at 50 mg/kg, po qd after 10 days (reference value: 39.5 +/- 3.86 U/I); assay type: functional
Mus musculus [27] = experiment: Toxicity in albino Mus musculus (mouse) assessed as change in eye color at 150 to 900 mg/kg, ip measured within 24 hr; assay type: organism-based; set-up: dose 150-900 mg/kg, route intraperitoneal; conditions: in vivo
Rattus norvegicus [28] = experiment: Effect on ALP level in Wistar Rattus norvegicus (rat) serum at 100 mg/kg, po qd after 10 days (reference value: 39.5 +/- 3.86 U/I); assay type: functional
Rattus norvegicus [29] = experiment: Antipyretic activity in Wistar Rattus norvegicus (rat) assessed as decrease in Brewer's yeast solution-induced hyperthermia at 150 mg/kg, po measured after 3 hr (reference value: 36.8 +/- 1.9 degC); assay type: functional
Rattus norvegicus [30] = experiment: Antipyretic activity in Wistar Rattus norvegicus (rat) assessed as decrease in Brewer's yeast solution-induced hyperthermia at 50 mg/kg, po measured after 1 hr (reference value: 37 +/- 3.55 degC); assay type: functional
Rattus norvegicus [31] = experiment: Anti-inflammatory activity in Wistar Rattus norvegicus (rat) assessed as inhibition of carrageenan-induced paw edema at 100 mg/kg, po administered 30 min prior to carrageenan challenge measured at 60 min relative to untreated control; assay type: functional
Mus musculus [32] = experiment: Toxicity in albino Mus musculus (mouse) assessed as tremor in hind limbs at 650 to 1800 mg/kg, ip measured within 24 hr; assay type: organism-based, Hindlimb; set-up: dose 650-1800 mg/kg, route intraperitoneal; conditions: in vivo
Mus musculus [33] = experiment: Toxicity in albino Mus musculus (mouse) assessed as rapid respiration at 650 to 1800 mg/kg, ip measured within 1 to 2 hr; assay type: organism-based; set-up: route intraperitoneal; conditions: in vivo
Mus musculus [34] = experiment: Toxicity in albino Mus musculus (mouse) assessed as change in eye color at 650 to 1800 mg/kg, ip measured within 24 hr; assay type: organism-based; set-up: dose 650-1800 mg/kg, route intraperitoneal; conditions: in vivo

O=c1c2ccccc2nc2n1NC(c1ccc(O)c(O)c1)C2 (stereo not given)
inhibition in vivo at 50 mg/kg (Rattus norvegicus [1]): 39.5% | Activity (Rattus norvegicus [2]): 4.25 nmol | Activity [3]: Active | Activity (Rattus norvegicus [4]): 0.5 U/L | inhibition in vivo at 150 mg/kg (Rattus norvegicus [5]): 44.2% | inhibition in vivo at 150 mg/kg (Rattus norvegicus [6]): 8.48% | Activity (Rattus norvegicus [7]): 2.39 mg | Activity (Mus musculus [8]): Toxic | T (Rattus norvegicus [9]): 37.5 °C | Activity (Rattus norvegicus [10]): 243.46 U/L | LD50 at 24 h [11]: 495 mg/kg | T (Rattus norvegicus [12]): 36.1 °C | Activity (Mus musculus [13]): Toxic | Activity (Mus musculus [14]): Toxic | Activity (Rattus norvegicus [15]): 53.45 mmol | Activity (Mus musculus [16]): Toxic | T (Rattus norvegicus [17]): 37 °C | Activity (Rattus norvegicus [18]): 1.8 mg | Activity (Rattus norvegicus [19]): 0.51 U/L | Activity (Rattus norvegicus [20]): 134.55 U/L | inhibition in vivo at 150 mg/kg (Rattus norvegicus [21]): 54.6% | inhibition in vivo at 50 mg/kg (Rattus norvegicus [22]): 1.28% | Activity (Rattus norvegicus [23]): 246.29 U/L | T (Rattus norvegicus [24]): 36.5 °C | inhibition in vivo at 50 mg/kg (Rattus norvegicus [25]): 28.1% | Activity (Rattus norvegicus [26]): 40.77 U/L | Activity (Mus musculus [27]): Toxic | Activity (Rattus norvegicus [28]): 35.64 U/L | T (Rattus norvegicus [29]): 36.6 °C | T (Rattus norvegicus [30]): 37.6 °C | inhibition in vivo at 100 mg/kg (Rattus norvegicus [31]): 38%

COC(=O)c1ccccc1NC(=O)/C=C/c1ccc(O)c(O)c1
Activity (Mus musculus [32]): Toxic | inhibition in vivo at 50 mg/kg (Rattus norvegicus [1]): 53.1% | Activity (Mus musculus [33]): Toxic | Activity (Rattus norvegicus [2]): 5.59 nmol | Activity [3]: Active | Activity (Rattus norvegicus [4]): 0.49 U/L | inhibition in vivo at 150 mg/kg (Rattus norvegicus [5]): 62.6% | inhibition in vivo at 150 mg/kg (Rattus norvegicus [6]): 37.9% | Activity (Rattus norvegicus [7]): 2.95 mg | T (Rattus norvegicus [9]): 36.9 °C | Activity (Rattus norvegicus [10]): 239.19 U/L | LD50 at 24 h [11]: 1140 mg/kg | T (Rattus norvegicus [12]): 36.8 °C | Activity (Mus musculus [34]): Toxic | Activity (Rattus norvegicus [15]): 57.89 mmol | T (Rattus norvegicus [17]): 36.5 °C | Activity (Rattus norvegicus [18]): 1.94 mg | Activity (Rattus norvegicus [19]): 0.51 U/L | Activity (Rattus norvegicus [20]): 129.32 U/L | inhibition in vivo at 150 mg/kg (Rattus norvegicus [21]): 78.9% | inhibition in vivo at 50 mg/kg (Rattus norvegicus [22]): 24.7% | Activity (Rattus norvegicus [23]): 240.38 U/L | T (Rattus norvegicus [24]): 37 °C | inhibition in vivo at 50 mg/kg (Rattus norvegicus [25]): 41.6% | Activity (Rattus norvegicus [26]): 38.3 U/L | Activity (Rattus norvegicus [28]): 35.64 U/L | T (Rattus norvegicus [29]): 36.5 °C | T (Rattus norvegicus [30]): 37.7 °C | inhibition in vivo at 100 mg/kg (Rattus norvegicus [31]): 45.4%
